Results taken from publication PMC12431657, “Discovery and mechanistic insights of dibenzoylmethane as a broad spectrum inhibitor of coronavirus” (PLOS Pathogens, 2025).
Several values for one entry are separate records, joined by “and”; a condition that tells them apart may be missing. Identical values can stand only once. Like-named read-outs stand apart in the source and are kept apart here.

How the values were obtained:
HCoV-229E [1] = assay: Antiviral activity in vitro, viral RNA copies by qRT-PCR, HCoV-229E in Huh-7 cells; format: cell-based; conditions: for EC50: Human coronavirus 229E, Huh-7, 24 h, read-out: EC50 HCoV-229E (Huh-7)
HCoV-229E [2] = assay: Antiviral activity in vitro, qRT-PCR, HCoV-229E in MRC-5 cells; format: cell-based; conditions: for EC50: Human coronavirus 229E, MRC5, 24 h, read-out: EC50 HCoV-229E (MRC-5); for HCoV-229E, MRC-5: inhibition at the concentration (Fig2B): replicates
HCoV-OC43 [3] = assay: Antiviral activity in vitro, qRT-PCR, HCoV-OC43 in RD cells; format: cell-based; conditions: for EC50: Betacoronavirus 1, OC43, RD, 24 h, read-out: EC50 HCoV-OC43 (RD)
HCoV-OC43 [4] = assay: Antiviral activity in vitro, qRT-PCR, HCoV-OC43 in Huh-7 cells; format: cell-based; conditions: for EC50: Betacoronavirus 1, OC43, Huh-7, 24 h, read-out: EC50 HCoV-OC43 (Huh-7); for HCoV-OC43, Huh-7: inhibition at the concentration (Fig2B): replicates
HCoV-OC43 [5] = tested on: HCoV-OC43
[6] = erythromycin estolate exceeding 300 mpk, veratramine exceeding 10 mpk; cited from earlier work
Huh-7 cells [7] = tested on: Huh-7 cells; design: unit not given beside the values
Huh-7 cells [8] = assay: Cytotoxicity assay (CCK-8), Huh-7 cells
RD cells = format: cell-based
HCoV-OC43 [9] = assay: HCoV-OC43 replication in siRNA-transfected cells; format: cell-based; conditions: replicates
[10] = conc. 0.1 (unit not given), replicates
[11] = conc. 0.2 (unit not given), replicates
[12] = conc. 0.7 (unit not given), replicates
[13] = conc. 2.2 (unit not given), replicates
[14] = conc. 6.7 (unit not given), replicates
[15] = conc. 20 (unit not given), replicates

With `CCC(=O)O[C@H]1[C@H](O[C@@H]2[C@@H](C)[C@H](O[C@H]3C[C@@](C)(OC)[C@@H](O)[C@H](C)O3)[C@@H](C)C(=O)O[C@H](CC)[C@@](C)(O)[C@H](O)[C@@H](C)C(=O)[C@H](C)C[C@@]2(C)O)O[C@H](C)C[C@@H]1N(C)C` [Erythromycin estolate, erythromycin estolate, reference compound] as the molecule, how does the EC50 (HCoV-229E [1]) read?
Its EC50 is 3040 nM.

What about the “EC50 (229E, Huh-7): inhibition at the concentration” value (“EC50 (229E, Huh-7): inhibition” for short) (HCoV-229E [1]; [10]) of the same molecule?
The value was 56.8 and 60.1 and 43.4.

And the “EC50 (229E, Huh-7): inhibition” value (HCoV-229E [1]; [11])?
Its value is 31.4 and 41.8 and 52.9.

What about the “EC50 (229E, Huh-7): inhibition” value (HCoV-229E [1]; [12]) of the same molecule?
The value was 61.1 and 42.4 and 25.7.

And the “EC50 (229E, Huh-7): inhibition” value (HCoV-229E [1]; [13])?
Its value is 61.7 and 57.1 and 74.9.

What about the “EC50 (229E, Huh-7): inhibition” value (HCoV-229E [1]; [14]) of the same molecule?
The value was 79.9 and 80.4 and 68.3.

What about the “EC50 (229E, Huh-7): inhibition” value (HCoV-229E [1]; [15]) of the same molecule?
Its value is 82.8 and 90.2 and 91.5.

What about the EC50 (HCoV-229E [2]) of the same molecule?
The EC50 was 9210 nM.

What about the “HCoV-229E, MRC-5: inhibition at the concentration (Fig2B)” value (“HCoV-229E, MRC-5: inhibition” for short) (HCoV-229E [2]; conc. 0.1 (unit not given)) of the same molecule?
Its value is 0.6 and 0.5 and 1.3.

What about the “HCoV-229E, MRC-5: inhibition” value (HCoV-229E [2]; conc. 0.2 (unit not given)) of the same molecule?
The value was 18.6 and 2.4 and -3.2.

What about the “HCoV-229E, MRC-5: inhibition” value (HCoV-229E [2]; conc. 0.7 (unit not given)) of the same molecule?
Its value is 2.2 and 1.5 and 26.7.

And the “HCoV-229E, MRC-5: inhibition” value (HCoV-229E [2]; conc. 2.2 (unit not given))?
Its value is 3.2 and -1.4 and 0.1.

And the “HCoV-229E, MRC-5: inhibition” value (HCoV-229E [2]; conc. 6.7 (unit not given))?
The value was 0.7 and 0.9 and 1.2.

And the “HCoV-229E, MRC-5: inhibition” value (HCoV-229E [2]; conc. 20.0 (unit not given))?
Its value is 90.1 and 91.7 and 86.2.

What about the EC50 (HCoV-OC43 [3]) of the same molecule?
The EC50 was 460 nM.

And the “EC50 (OC43, RD): inhibition at the concentration” value (“EC50 (OC43, RD): inhibition” for short) (HCoV-OC43 [3]; [10])?
Its value is -62.2 and -76.2 (2×).

And the “EC50 (OC43, RD): inhibition” value (HCoV-OC43 [3]; [11])?
Its value is 31.5 and 23.3 and 28.

What about the “EC50 (OC43, RD): inhibition” value (HCoV-OC43 [3]; [12]) of the same molecule?
Its value is 73.9 and 79.2 and 79.3.

And the “EC50 (OC43, RD): inhibition” value (HCoV-OC43 [3]; [13])?
The value was 69.6 and 71.7 and 71.9.

And the “EC50 (OC43, RD): inhibition” value (HCoV-OC43 [3]; [14])?
The value was 83.9 and 85 and 84.5.

What about the “EC50 (OC43, RD): inhibition” value (HCoV-OC43 [3]; [15]) of the same molecule?
The value was 98.4 and 98.5.

What about the EC50 (HCoV-OC43 [4]) of the same molecule?
Its EC50 is 730 nM.

And the “HCoV-OC43, Huh-7: inhibition at the concentration (Fig2B)” value (from here on “HCoV-OC43, Huh-7: inhibition”) (HCoV-OC43 [4]; conc. 0.2 (unit not given))?
Its value is 18.4 and 11.5 and -3.5.

And the “HCoV-OC43, Huh-7: inhibition” value (HCoV-OC43 [4]; conc. 0.7 (unit not given))?
Its value is 62.9 and 63.5 and 57.4.

What about the “HCoV-OC43, Huh-7: inhibition” value (HCoV-OC43 [4]; conc. 2.2 (unit not given)) of the same molecule?
Its value is 73.5 and 73.6 and 72.3.

And the “HCoV-OC43, Huh-7: inhibition” value (HCoV-OC43 [4]; conc. 6.7 (unit not given))?
The value was 95.6 and 95.5 and 95.7.

And the “HCoV-OC43, Huh-7: inhibition” value (HCoV-OC43 [4]; conc. 20.0 (unit not given))?
Its value is 98.3 (2×) and 98.1.

And the “number of viral RNA copies in HCoV-OC43-infected mice” value (HCoV-OC43 [5]; columbianadin 50 mpk QD, erythromycin estolate 300 mpk QD)?
The value was “did not significantly reduce”.

And the “safe use in antitumour mouse models” value [6]?
Its value is “safely used”.

With `Cc1c([C@H](C)[C@@H]2NC[C@@H](C)C[C@H]2O)ccc2c1C[C@H]1[C@H]2CC=C2C[C@@H](O)CC[C@@]21C` [Veratramine, veratramine] as the molecule, how does the “EC50 (229E, Huh-7): inhibition” value (HCoV-229E [1]) read?
The value was 93.4.

And the EC50 (HCoV-229E [1])?
The EC50 was < 80 nM.

And the EC50 (HCoV-229E [2])?
The EC50 was 600 nM.

And the “EC50 (OC43, RD): inhibition” value (HCoV-OC43 [3])?
The value was 99.8 and 99.2.

What about the EC50 (HCoV-OC43 [3]) of the same molecule?
The EC50 was 250 nM.

And the EC50 (HCoV-OC43 [4])?
Its EC50 is < 80 nM.

And the Body weight changes (HCoV-OC43 [5]; mouse, in vivo)?
Its Body weight changes is 98.5.

And the “safe use in antitumour mouse models” value [6]?
Its value is “safely used”.

Which “CC50 (Huh-7): dose-response value per replicate” value (shortened to “CC50 … per replicate”) (Huh-7 cells [7]) does the source give for `CCC/C=C1\OC(=O)C2=C1CC[C@H]1[C@H]3C=C4C(=O)O/C(=C\CCC)[C@@]4(CC3)[C@@H]21` [levistolide A] here?
Its value is 17.6.

What about the “selectivity index (SI)” value (Huh-7 cells [8]) of the same molecule?
Its value is “below 25”.

Which “CC50 … per replicate” value (Huh-7 cells [7]) does the source give for `COc1c(CC=C(C)C)c(O)cc2oc(=O)c3c4ccc(O)cc4oc3c12` [neoglycyrol] here?
Its value is 37.8.

What about the “selectivity index (SI)” value (Huh-7 cells [8]) of the same molecule?
Its value is “below 25”.

For `COc1ccc2cc1Oc1ccc(cc1)C[C@H]1c3cc(c(OC)cc3CCN1C)Oc1c(OC)c(OC)cc3c1[C@H](C2)N(C)CC3` [tetrandrine], which “CC50 … per replicate” value (Huh-7 cells [7]; human) is on record?
Its value is 114.8.

What about the “selectivity index (SI)” value (Huh-7 cells [8]) of the same molecule?
Its value is “below 25”.

Which results are given for “CASP3-2 (sense CCCUGGACAACAGUUAUAATT; antisense UUAUAACUGUUGUCCAGGGTT; chemistry not given here)”?
Relative mRNA content following siRNA knockdown (RD cells): 0.000229 and 0.000196 and 0.000194 and 0.000282 and 0.000327 and 0.000307; HCoV-OC43 replication in siRNA-transfected cells, inhibition (HCoV-OC43 [9]): 3.7 and -8.9 and -0.3 and 15.3 and 18.4 and 14.9

For “CASP7-1 (sense GUGCCAAGAUGCAAGAUCUTT; antisense AGAUCUUGCAUCUUGGCACTT; chemistry not given here)”, which “Relative mRNA content following siRNA knockdown” value (RD cells) is on record?
The value was 0.04453 and 0.02767 and 0.03038 and 0.03195 and 0.02491 and 0.0301.

What about the “HCoV-OC43 replication in siRNA-transfected cells, inhibition” value (HCoV-OC43 [9]) of the same molecule?
Its value is -1.2 and -4.0 and -5.1 and 6.9 and -3.2 and 8.5.

What does the source list for “CASP7-2 (sense GAGGAUUCAGCAAAUGAAGTT; antisense CUUCAUUUGCUGAAUCCUCTT; chemistry not given here)”?
Relative mRNA content following siRNA knockdown (RD cells): 0.04124 and 0.03671 and 0.03839 and 0.05589 and 0.05554 and 0.05883; HCoV-OC43 replication in siRNA-transfected cells, inhibition (HCoV-OC43 [9]): -52.2 and -54.8 and -44.2 and 4.9 and 14.1
